Results reported in patent publication US20230040081A1 (priority 2019, published 2023).

Experiments:
[1] = system: viral RNA polymerase; assay: Potential inhibitors: Results Screen; format: biochemical; details: test concentration not given
Experimental: (§1) Compound stocks were prepared at a concentration of 1 mM in 65% DMSO, at a volume of 5 μL each.

[2] = system: viral RNA polymerase; assay: Potential inhibitors: Results Hit validation; format: biochemical; details: test concentration not given
Experimental: as §1

| SMILES | Results Screen Median Screen (% inhibition) [1] [% inhibition] | Results Hit validation Median (% inhibition) [2] [% inhibition] |
| --- | --- | --- |
| CC1(C)CCC[C@@]2(C)[C@H]1[C@H](O)C=C1COC(=O)[C@]12O (racemic) [AD153413-10_B3] | 60.9 | 43.3 |
| O=C(OC[C@@H]1O[C@H](Oc2ccc(O)cc2CO)[C@@H](O)[C@H](O)[C@H]1O)c1ccccc1 (racemic) [AD153413-11_H9] | 60.5 | 54.9 |
| COc1ccc2c(c1)OC1c3ccc(OC)cc3OCC21 (stereo not drawn) [AD153413-01_A10] | 84.5 | 77.6 |
| CC1(C)C2CC[C@]3(C)C(C(=O)C=C4[C@H]5C[C@@](C)(C(=O)O)CC[C@]5(C)CC[C@]43C)[C@@]2(C)CC[C@@H]1O (stereo partly drawn) [AD153413-01_B11] | 75.6 | 72.1 |
| O=C(O)/C=C/c1ccccc1O[C@H]1O[C@@H](CO)[C@H](O)[C@@H](O)[C@@H]1O [AD153413-02_F8] | 86.7 | 44 |
| COc1ccc(CCC(=O)O)cc1 [AD153413-03_F11] | 70.6 | 41.8 |
| Oc1cc(O)cc(CCC/C=C\CCCCCCCCCc2cc(O)cc(O)c2)c1 [AD153413-03_H2] | 73.1 | 48.9 |
| C[C@]1(C(=O)O)CC[C@@]2(C)CC[C@@]3(C)C4=CC(=O)c5cc(O)c(O)cc5[C@@]4(C)CC[C@]3(C)[C@H]2C1 [AD153413-04_H6] | 77 | 52.2 |
| COc1cc(O)c2c(=O)c(O[C@H]3O[C@H](C)[C@@H](O)[C@H](O)[C@@H]3O)c(-c3ccc(O)cc3)oc2c1O [AD153413-05_B3] | 72.4 | 43.6 |
| COc1cc(C)cc(C(=O)O)c1C1=C(O)C(=O)c2c(O)cccc2C1=O [AD153413-06_A10] | 72.4 | 64.1 |
| NC(=O)c1c[nH]c(Cc2ccccc2)cc1=O [AD153413-06_B9] | 80 | 42.9 |
| O=C(CCc1ccc(O)cc1)CC(CCc1ccc(O)cc1)OC1O[C@@H](COC(=O)/C=C/c2ccc(O)cc2)[C@H](O)[C@@H](O)[C@@H]1O (stereo partly drawn) [AD153413-07_H11] | 70 | 45.2 |
| C=C(/C=C/[C@@H](CCC(=O)O)C(C)C)CCC(C)=O [AD153413-08_B4] | 73.6 | 41.9 |
| CC(=O)OC1CC2C(COC(=O)CC(C)C)=CO[C@H](OC(=O)CC(C)C)C2C12CO2 (stereo partly drawn) [AD153413-09_A3] | 89.7 | 55.9 |
| COc1cc(OC)cc([C@@H](C)C(=O)c2ccc(O)cc2O)c1 [AD153413-09_A6] | 81.1 | 64.2 |
| CC[C@H](C1=C(O)C(C)(C)C(=O)C(C)(C)C1=O)c1c(O)cc(O)c(C(=O)C(C)C)c1O [AD153413-09_B9] | 85.2 | 61.5 |
| CCC(C)C(=O)O[C@H]1CCC=C2C=C[C@H](C)[C@H](CC[C@@H](O)C[C@@H](O)CC(=O)O)[C@H]21 (stereo partly drawn) [AD153413-09_E2] | 90.3 | 60.5 |
| C=C(C)C1=C[C@@]2(C)C(=CC1=O)CC[C@@H](O)[C@@H]2C [AD153413-10_F2] | 80 | 50.8 |
| COc1cc(C2c3c(cc(OC)c(O)c3O)CC(CO)C2CO[C@H]2O[C@@H](C(=O)O)[C@H](O)[C@@H](O)[C@@H]2O)cc(OC)c1O (stereo partly drawn) [AD153413-11_A11] | 83 | 57.1 |
| CC(C)C1NC(=O)C2CCCN2C1=O (stereo not drawn) [AD153413-12_C11] | 61.7 | 44.2 |

| SMILES | Results Screen Median Screen (% inhibition) [1] [% inhibition] | Results Hit validation Median (% inhibition) [2] [% inhibition] |
| --- | --- | --- |
| CCCCC(C)C(=O)C(CC(C)CCCCCCC(O)CC(O)C(C)NC(C)=O)OC(=O)CC(CC(=O)O)C(=O)O (stereo not drawn) [AD153413-12_D11] | 73.7 | 50.1 |
| OC[C@@H]1O[C@H](Oc2ccc(O)c3cccc(O)c23)[C@@H](O)[C@H](O)[C@H]1O [AD153413-14_C5] | 63.3 | 52.6 |
| COc1cc(C2OC(c3cc(OC)c(OC)c(OC)c3)C(C)C2C)cc(OC)c1OC (stereo not drawn) [AD153413-14_E9] | 67.1 | 43.8 |
| CC(O)CC1CCC(C(C)C(=O)OC(C)CC2CCC(C(C)C(=O)O)O2)O1 (stereo not drawn) [AD153413-16_A3] | 83 | 44.5 |
| COc1cc(O)c2c(c1)C(O)C(C)OC2=O (stereo not drawn) [AD153413-16_B4] | 72.5 | 53.6 |
| CCCCCCCC/C(=C/CC(=O)O)C(=O)O [AD153413-16_C3] | 84.3 | 40.5 |
| O=C(/C=C/c1ccc(O)c2c1C(C(=O)O)C(c1ccc(O)c(O)c1)O2)OC(Cc1ccc(O)c(O)c1)C(=O)O (stereo not drawn) [AD153413-16_E3] | 77.7 | 55.9 |
| CCC(C)C(=O)OC1CC(C)C=C2C=CC(C)C(CCC(O)CC(O)CC(=O)O)C21 (stereo not drawn) [AD153413-16_G9] | 87.4 | 64.7 |
| COc1cc(-c2cc(=O)c3c(O)c(C4OC(CO)C(O)C(OC5OC(CO)C(O)C(O)C5OC5OC(CO)C(O)C(O)C5O)C4OC(=O)/C=C/c4ccc(O)c(O)c4)c(O)cc3o2)ccc1O (stereo not drawn) [AD153413-17_A4] | 69.6 | 52.3 |
| CC[C@H](C)/C=C(C)/C=C/C(=O)Cc1cc(O)c(C)c(O)c1C=O [AD153413-17_A5] | 71 | 70.9 |
| COc1cc(-c2oc3cc(O[C@H]4O[C@@H](CO)[C@H](O)[C@@H](O)[C@@H]4O)c(OC)c(O)c3c(=O)c2OC)ccc1O [AD153413-17_A6] | 77.1 | 62.2 |
| COC(=O)[C@H](Cc1ccccc1)NC(=O)c1ccccc1 [AD153413-18_A11] | 81 | 60.6 |
| CC(=O)O[C@H]1C[C@@H](O)[C@]23COC(O)[C@@]1(C)C2C[C@H](O)[C@@]1(C)C3C(=O)[C@@H](OC(C)=O)[C@]2(C)[C@@H](c3ccoc3)C[C@@H]3O[C@@]321 (stereo partly drawn) [AD153413-19_D3] | 71.8 | 41.6 |
| C/C=C/c1ccc2c(c1)[C@H](C)[C@@H](c1ccc(O)cc1)O2 [AD153413-19_H4] | 98.8 | 50.8 |
| O=C1c2ccc(O)cc2O[C@H](c2ccc(O)c(O)c2)[C@H]1O [AD153413-21_A6] | 68.8 | 54.7 |
| COC(=O)C1=COC(OC2O[C@@H](CO)[C@H](O)[C@@H](O)[C@@H]2O)[C@H]2C1C=CC21C=C(C(C)CC(=O)/C=C/c2ccc(O)cc2)C(=O)O1 (stereo partly drawn) [AD153413-23_G3] | 60.5 | 61.7 |
| CC1CCC2(C)CCC3(C)C(=CCC4C5(C)CCC(O)C(C)(C(=O)O)C5CCC43C)C2C1C (stereo not drawn) [AD153413-25_A7] | 85.9 | 70 |
| CC(=O)O[C@H]1CC[C@]2(C)C(CC[C@@]3(C)C2[C@@H](O)C=C2[C@@H]4[C@H](C)[C@@H](C)CC[C@@]4(C)CC[C@@]23C)[C@]1(C)C(C)=O (stereo partly drawn) [AD153413-25_A8] | 73.8 | 86.3 |
| CC1=C[C@H](C/C(C)=C/COc2c3occc3cc3ccc(=O)oc23)OC1=O [AD153413-25_H9] | 79.1 | 51.1 |
